Literature values, collected in US20070149409A1, “Pesticide formulations with substituted biopolymers and organic polymers for improving residual activity, droplet size, adherence and rainfastness on leaves and reduction in soil leaching” (priority 2003, published 2007).

Compound	pK / pKa
Indole acetic acid	4.7
Nc1nc[nH]n1 [Amitrole]	9.8
CCCC(Cn1cncn1)c1ccc(Cl)cc1Cl (centres unmarked) [penconazole]	1.5
CP(=O)(O)CCC(N)C(=O)O (centres unmarked) [glufosinate]	9.8
CCCOC(=O)NCCCN(C)C [propamocarb]	4.9
